In PMC7584622, “Sensing of autoinducer-2 by functionally distinct receptors in prokaryotes” (Nature Communications, 2020):
Values joined by “and” are separate entries in the source; they are usually repeats but may differ in a detail not shown here. Equal entries are not always repeated.

What was measured:
P. aeruginosa PAO1 [1] = experiment: crystal violet quantification of biofilm formation; conditions: 100 nM DPD/AI-2, 37 °C, 48 h
Method: Biofilms were stained with crystal violet and quantified using optical density measurement after incubation at 37 °C for 48 h. Data are mean ± s.e.m. of five independent experiments. b Quantification of biofilm formation by P. aeruginosa strains from confocal imaging. […] Images were reconstructed using the Imaris 9.0 software package (Bitplane, AG) (Supplementary Fig. 6) and biofilm biovolumes were quantified using COMSTAT (www.comstat.dk). Biovolumes were calculated from three biological replicates and each biological replicate was derived from an average of five confocal images.
For crystal violet quantification of biofilm formation, overnight cultures of relevant strains of P. aeruginosa were diluted with TSB medium to an OD600 of 0.05, and 190 μl aliquots of the diluted cells were inoculated into each well of a 96-well microtiter plate (cat# 220400, Zhejiang Sorfa Life Science Research Co., Ltd., China). […] After incubation at 37 °C for 48 h without shaking, culture supernatant was removed and the wells were washed twice with phosphate-buffered saline (PBS). Cells adhering to the wells were stained with 0.1% (w/v) crystal violet for 15 min and then washed three times with PBS. The bacteria-bound dye was dissolved in 200 μl of 95% ethanol and the absorbance was determined at 590 nm.

PctA-LBD W128A = molecular target: T1, PctA-LBD W128A (Pseudomonas aeruginosa, UniProt G3XD24, W128A); experiment: biochemical; format: binding; conditions: PctA-LBD W128A 70 μM; DPD/AI-2 700 μM
T1 construct: Amino acids 30-278 and 36-360 of PctA and TlpQ, respectively; His6 (N, cleaved yes); made in house; host or cells: E. coli BL21(DE3) (pET-28a derivative)
T1 sequence (G3XD24 30-278 W128A): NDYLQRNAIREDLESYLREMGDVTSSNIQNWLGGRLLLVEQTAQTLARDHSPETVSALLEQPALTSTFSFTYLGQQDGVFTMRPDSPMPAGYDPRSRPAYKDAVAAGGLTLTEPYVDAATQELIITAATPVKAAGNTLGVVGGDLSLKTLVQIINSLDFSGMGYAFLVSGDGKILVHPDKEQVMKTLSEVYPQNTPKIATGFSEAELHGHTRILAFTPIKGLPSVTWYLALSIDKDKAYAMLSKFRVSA

PctA-LBD Y101A = molecular target: T2, PctA-LBD Y101A (Pseudomonas aeruginosa, UniProt G3XD24, Y101A); experiment: biochemical; format: binding; conditions: PctA-LBD Y101A 70 μM; DPD/AI-2 700 μM
T2 construct: Amino acids 30-278 and 36-360 of PctA and TlpQ, respectively; His6 (N, cleaved yes); made in house; host or cells: E. coli BL21(DE3) (pET-28a derivative)
T2 sequence (G3XD24 30-278 Y101A): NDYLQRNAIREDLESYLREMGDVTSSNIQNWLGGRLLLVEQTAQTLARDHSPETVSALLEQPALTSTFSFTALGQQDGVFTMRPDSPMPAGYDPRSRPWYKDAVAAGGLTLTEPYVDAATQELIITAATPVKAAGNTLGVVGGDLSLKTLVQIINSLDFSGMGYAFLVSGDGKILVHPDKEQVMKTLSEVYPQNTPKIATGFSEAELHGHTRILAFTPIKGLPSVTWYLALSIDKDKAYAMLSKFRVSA

PctB-LBD = PctB-LBD (Pseudomonas aeruginosa, UniProt Q9HW91); experiment: ITC binding to PctB-LBD; conditions: 700 μM DPD/AI-2 into 70 μM PctB-LBD, minor heats, not certain whether they reflect binding
PctB-LBD, sequence (Q9HW91 32-276): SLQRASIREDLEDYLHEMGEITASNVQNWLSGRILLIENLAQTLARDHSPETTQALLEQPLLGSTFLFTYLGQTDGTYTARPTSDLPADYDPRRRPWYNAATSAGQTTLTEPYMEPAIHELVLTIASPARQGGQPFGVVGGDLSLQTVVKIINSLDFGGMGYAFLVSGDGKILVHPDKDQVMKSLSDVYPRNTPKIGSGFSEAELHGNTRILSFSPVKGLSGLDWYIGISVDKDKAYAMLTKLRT
Method: ITC experiments were performed at 20 °C using a Nano ITC Standard Volume isothermal calorimeter (TA Instruments, New Castle, DE). […] The stirring speed was 200 r.p.m. and 25 injections were used each experiment. Three independent experiments were performed for each sample. […] ITC data were analyzed and fit with a one-site independent binding model using the NanoAnalyze software version 3.4 provided by the manufacturer, with the heat of dilution subtracted from the experimental titrations before data analysis.

rpHK1S-Z16-LBD = rpHK1S-Z16-LBD (Rhodopseudomonas palustris, UniProt Q6N3S7); experiment: ITC binding to rpHK1S-Z16-LBD; set-up: species or system R. palustris; conditions: 700 μM DPD/AI-2 into 70 μM rpHK1S-Z16-LBD
rpHK1S-Z16-LBD, sequence (Q6N3S7 entry or part of it): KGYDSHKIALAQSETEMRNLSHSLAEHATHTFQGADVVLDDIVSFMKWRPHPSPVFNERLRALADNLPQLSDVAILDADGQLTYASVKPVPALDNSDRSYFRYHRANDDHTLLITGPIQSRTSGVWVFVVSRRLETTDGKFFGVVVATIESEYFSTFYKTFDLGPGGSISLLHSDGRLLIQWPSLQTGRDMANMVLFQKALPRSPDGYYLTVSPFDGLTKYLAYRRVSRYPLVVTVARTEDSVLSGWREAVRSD

P. aeruginosa PAO1 [2] = experiment: quantitative capillary chemotaxis assay

CC(=O)C(=O)C(O)CO (stereo not shown) [DPD/AI-2, 4,5-dihydroxy-2,3-pentanedione]
OD590 (crystal violet biofilm) (P. aeruginosa PAO1 [1]; strain WT(Vector)): 3.71 and 3.92 and 4.21 and 4.32 and 4.12 | OD590 (crystal violet biofilm) (P. aeruginosa PAO1 [1]; strain ΔpctA(Vector)): 2.92 and 3.14 and 3.21 and 2.99 and 3.31 | OD590 (crystal violet biofilm) (P. aeruginosa PAO1 [1]; strain ΔpctAΔtlpQ(Vector)): 2.53 and 2.64 and 2.49 and 2.62 and 2.12 | OD590 (crystal violet biofilm) (P. aeruginosa PAO1 [1]; strain ΔpctAΔtlpQ(pctA)): 3.05 and 3.43 and 3.56 and 3.32 and 3.18 | OD590 (crystal violet biofilm) (P. aeruginosa PAO1 [1]; strain ΔpctAΔtlpQ(pctB)): 2.31 and 2.73 and 2.24 and 2.53 and 2.77 | OD590 (crystal violet biofilm) (P. aeruginosa PAO1 [1]; strain ΔpctAΔtlpQ(tlpQ)): 3.41 and 3.66 and 3.44 and 3.21 and 3.40 | OD590 (crystal violet biofilm) (P. aeruginosa PAO1 [1]; strain ΔtlpQ(Vector)): 3.21 and 3.31 and 3.58 and 3.67 and 3.42 | Kd (PctA-LBD W128A): 25 µM and 24 µM and 18 µM | Kd (PctA-LBD Y101A): 33 µM and 42 µM and 34 µM | Kd (PctB-LBD): 205 µM and 176 µM and 163 µM | Kd (rpHK1S-Z16-LBD): 0.13 µM and 0.19 µM and 0.21 µM | Cells per capillary (P. aeruginosa PAO1 [2]; 1 μM DPD/AI-2, PAO1, 30 min, buffer capillary subtracted): 3700 and 4300 and 4700 and 2900 and 5300 | Cells per capillary (P. aeruginosa PAO1 [2]; 10 μM DPD/AI-2, PAO1, 30 min, buffer capillary subtracted): 9900 and 11300 and 14200 and 11400 and 10800 | Cells per capillary (P. aeruginosa PAO1 [2]; 100 μM DPD/AI-2, PAO1, 30 min, buffer capillary subtracted): 30800 and 31500 and 39700 and 42100 and 39200 | Cells per capillary (P. aeruginosa PAO1 [2]; 1000 μM DPD/AI-2, PAO1, 30 min, buffer capillary subtracted): 23500 and 25700 and 24700 and 27800 and 19800 | concentration of optimal chemotactic response (P. aeruginosa PAO1 [2]; P. aeruginosa PAO1, capillary, 30 min): 100 µM | Cells per capillary (P. aeruginosa PAO1 [2]; strain ΔPA1608, 100 μM DPD/AI-2, Fig. 1d): 37200 and 36700 and 39700 and 37700 and 35300 | Cells per capillary (P. aeruginosa PAO1 [2]; strain ΔPA1646, 100 μM DPD/AI-2, Fig. 1d): 37700 and 38800 and 33600 and 35400 and 35300 | Cells per capillary (P. aeruginosa PAO1 [2]; strain ΔPA2573, 100 μM DPD/AI-2, Fig. 1d): 39200 and 34600 and 39900 and 36000 and 39600 | Cells per capillary (P. aeruginosa PAO1 [2]; strain ΔPA2652, 100 μM DPD/AI-2, Fig. 1d): 38500 and 34500 and 34200 and 36900 and 36500 | Cells per capillary (P. aeruginosa PAO1 [2]; strain ΔPA2788, 100 μM DPD/AI-2, Fig. 1d): 33800 and 38800 and 38900 and 36100 and 38600 | Cells per capillary (P. aeruginosa PAO1 [2]; strain ΔPA2867, 100 μM DPD/AI-2, Fig. 1d): 38500 and 34300 and 34100 and 37600 and 33900 | Cells per capillary (P. aeruginosa PAO1 [2]; strain ΔPA2920, 100 μM DPD/AI-2, Fig. 1d): 36800 and 33100 and 39300 and 35100 | Cells per capillary (P. aeruginosa PAO1 [2]; strain ΔPA4290, 100 μM DPD/AI-2, Fig. 1d): 35800 and 35100 and 37600 and 35000 and 38600 | Cells per capillary (P. aeruginosa PAO1 [2]; strain ΔPA4520, 100 μM DPD/AI-2, Fig. 1d): 33900 and 37400 and 33500 and 36700 | Cells per capillary (P. aeruginosa PAO1 [2]; strain ΔPA4633, 100 μM DPD/AI-2, Fig. 1d): 35700 and 39100 | Cells per capillary (P. aeruginosa PAO1 [2]; strain Δaer, 100 μM DPD/AI-2, Fig. 1d): 36600 and 36200 and 39600 and 36400 and 37100 | Cells per capillary (P. aeruginosa PAO1 [2]; strain ΔctpH, 100 μM DPD/AI-2, Fig. 1d): 38900 and 35200 and 37100 and 35400 and 36800
